Test results taken from ChEMBL document CHEMBL1201862, “PubChem BioAssay data set” (2004).
Calls of active or inactive are those of the source.

Assays:
[1] = A cytotoxicity screen of small molecule inhibitors of the PhoP region in Salmonella typhi identified in the primary screen. [Related pubchem assays: 1850, 1864, 1985 ]; assay type: functional
[2] = target: Luciferin 4-monooxygenase (Photinus pyralis, UniProt P08659); assay: firefly luciferase enzyme inhibitors, dose response, biochemical, luminescence (AID 1891)
Sequence of Luciferin 4-monooxygenase (P08659 whole entry): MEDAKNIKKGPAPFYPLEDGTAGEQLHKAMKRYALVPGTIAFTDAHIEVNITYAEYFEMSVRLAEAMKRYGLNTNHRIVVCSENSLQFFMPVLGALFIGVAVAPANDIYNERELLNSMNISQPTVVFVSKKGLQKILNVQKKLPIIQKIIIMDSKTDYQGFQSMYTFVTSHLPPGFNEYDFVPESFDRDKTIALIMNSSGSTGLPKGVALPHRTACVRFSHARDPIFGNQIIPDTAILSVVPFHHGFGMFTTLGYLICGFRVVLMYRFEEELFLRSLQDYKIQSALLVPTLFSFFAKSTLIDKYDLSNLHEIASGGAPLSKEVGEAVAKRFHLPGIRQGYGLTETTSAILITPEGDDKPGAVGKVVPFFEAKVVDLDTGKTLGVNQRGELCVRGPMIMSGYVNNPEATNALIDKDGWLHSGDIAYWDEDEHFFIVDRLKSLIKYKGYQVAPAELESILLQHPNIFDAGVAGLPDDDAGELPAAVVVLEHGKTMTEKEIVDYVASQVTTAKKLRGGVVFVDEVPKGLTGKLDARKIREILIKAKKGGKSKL

[3] = Luminescence Cell-Based Dose Confirmation HTS to Identify Inhibitors of Platelet Dense Granule Release. [Related pubchem assays: 1663 (Primary HTS), 1678 (Summary of Project)]; assay type: functional
Mucolipin-3 = target: T1, Mucolipin-3 (Homo sapiens, UniProt Q8TDD5); assay: Dose response cell-based high-throughput screening assay for agonists of the transient receptor potential channel ML3 (TRPML3). [Related pubchem assays: 1526, 1424, 1448 ]; assay type: functional
T1 sequence (Q8TDD5 whole entry): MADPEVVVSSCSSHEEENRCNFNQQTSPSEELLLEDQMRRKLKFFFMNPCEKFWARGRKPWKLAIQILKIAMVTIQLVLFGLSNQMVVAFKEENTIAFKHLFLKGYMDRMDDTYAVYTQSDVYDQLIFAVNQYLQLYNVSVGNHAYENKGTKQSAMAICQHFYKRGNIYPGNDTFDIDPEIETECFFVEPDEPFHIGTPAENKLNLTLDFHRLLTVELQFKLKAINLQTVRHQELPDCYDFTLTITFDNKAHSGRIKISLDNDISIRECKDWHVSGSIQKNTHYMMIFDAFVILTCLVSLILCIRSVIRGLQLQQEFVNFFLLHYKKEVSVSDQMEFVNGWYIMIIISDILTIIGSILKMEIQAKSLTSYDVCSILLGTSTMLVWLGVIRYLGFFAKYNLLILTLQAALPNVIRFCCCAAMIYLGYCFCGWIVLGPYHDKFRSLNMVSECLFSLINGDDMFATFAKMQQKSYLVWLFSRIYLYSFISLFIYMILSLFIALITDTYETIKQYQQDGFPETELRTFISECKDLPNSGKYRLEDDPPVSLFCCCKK

Ion channel NompC = Ion channel NompC (Danio rerio, UniProt Q7T1G6); assay: Fluorescence counterscreen assay for TRPML3 agonists: dose response cell-based high-throughput screening assay to identify agonists of the transient receptor potential channel N1 (TRPN1). [Related pubchem assays: 1526, 1424, 1448 ]; assay type: functional
Sequence of Ion channel NompC (Q7T1G6 whole entry): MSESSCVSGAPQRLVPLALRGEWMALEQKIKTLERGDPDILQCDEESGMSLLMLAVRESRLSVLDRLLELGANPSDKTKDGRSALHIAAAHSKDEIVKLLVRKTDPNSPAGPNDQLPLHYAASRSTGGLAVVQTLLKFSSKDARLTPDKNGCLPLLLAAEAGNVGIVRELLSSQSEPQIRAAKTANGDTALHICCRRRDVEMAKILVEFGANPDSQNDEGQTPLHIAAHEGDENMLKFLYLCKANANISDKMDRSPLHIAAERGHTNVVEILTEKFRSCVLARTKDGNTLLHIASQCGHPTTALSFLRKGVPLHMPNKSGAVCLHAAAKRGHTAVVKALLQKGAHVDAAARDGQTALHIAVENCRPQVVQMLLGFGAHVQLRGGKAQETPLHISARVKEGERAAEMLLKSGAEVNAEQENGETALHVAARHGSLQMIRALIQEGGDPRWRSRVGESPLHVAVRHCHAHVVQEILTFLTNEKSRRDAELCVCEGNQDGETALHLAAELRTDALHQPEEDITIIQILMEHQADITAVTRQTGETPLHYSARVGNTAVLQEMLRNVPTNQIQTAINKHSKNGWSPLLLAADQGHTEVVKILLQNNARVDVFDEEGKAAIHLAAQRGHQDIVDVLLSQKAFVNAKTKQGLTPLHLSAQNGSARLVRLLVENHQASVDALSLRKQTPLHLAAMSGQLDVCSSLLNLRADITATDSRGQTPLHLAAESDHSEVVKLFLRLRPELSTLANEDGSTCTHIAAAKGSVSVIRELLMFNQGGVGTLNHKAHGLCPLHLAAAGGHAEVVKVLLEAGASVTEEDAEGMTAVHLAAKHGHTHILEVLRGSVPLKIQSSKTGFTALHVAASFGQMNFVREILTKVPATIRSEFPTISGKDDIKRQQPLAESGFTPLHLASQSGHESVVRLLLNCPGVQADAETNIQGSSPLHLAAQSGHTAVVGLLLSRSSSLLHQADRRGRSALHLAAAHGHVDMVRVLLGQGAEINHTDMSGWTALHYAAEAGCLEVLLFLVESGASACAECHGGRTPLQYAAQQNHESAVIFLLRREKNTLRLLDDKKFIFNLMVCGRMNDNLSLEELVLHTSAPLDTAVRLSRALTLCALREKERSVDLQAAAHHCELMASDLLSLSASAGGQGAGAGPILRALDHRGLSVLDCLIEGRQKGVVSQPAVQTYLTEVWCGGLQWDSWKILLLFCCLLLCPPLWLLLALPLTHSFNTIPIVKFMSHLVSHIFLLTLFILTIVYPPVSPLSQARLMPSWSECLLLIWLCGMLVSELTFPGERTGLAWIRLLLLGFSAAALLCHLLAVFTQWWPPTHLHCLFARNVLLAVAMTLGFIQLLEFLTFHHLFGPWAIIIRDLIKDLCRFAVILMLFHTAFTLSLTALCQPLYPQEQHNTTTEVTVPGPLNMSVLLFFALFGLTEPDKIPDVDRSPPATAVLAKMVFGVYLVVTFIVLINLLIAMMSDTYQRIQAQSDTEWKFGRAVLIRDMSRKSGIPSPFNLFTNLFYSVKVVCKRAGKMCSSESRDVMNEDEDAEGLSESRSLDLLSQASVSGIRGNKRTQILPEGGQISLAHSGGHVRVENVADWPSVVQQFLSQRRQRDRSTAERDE

[4] = system: Streptococcus sp. 'group A'; assay: growth inhibition of control SK(-) GAS strain, dose response, counter-screen for streptokinase expression inhibitor project, luminescence, kanamycin, BacTiterGlo, confirmation (AID 1900); assay type: functional, organism-based
Streptokinase A = target: T2, Streptokinase A (Streptococcus pyogenes serotype M1, UniProt P10520); assay: S. pyogenes streptokinase expression inhibitors, potency, dose response, plasminogen activation absorbance, OD405 (AID 1914); assay type: functional, Streptococcus pyogenes M1 GAS;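 further: secreted streptokinase activity via plasminogen activation per viability signal from cell pellet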
T2 sequence (P10520 whole entry): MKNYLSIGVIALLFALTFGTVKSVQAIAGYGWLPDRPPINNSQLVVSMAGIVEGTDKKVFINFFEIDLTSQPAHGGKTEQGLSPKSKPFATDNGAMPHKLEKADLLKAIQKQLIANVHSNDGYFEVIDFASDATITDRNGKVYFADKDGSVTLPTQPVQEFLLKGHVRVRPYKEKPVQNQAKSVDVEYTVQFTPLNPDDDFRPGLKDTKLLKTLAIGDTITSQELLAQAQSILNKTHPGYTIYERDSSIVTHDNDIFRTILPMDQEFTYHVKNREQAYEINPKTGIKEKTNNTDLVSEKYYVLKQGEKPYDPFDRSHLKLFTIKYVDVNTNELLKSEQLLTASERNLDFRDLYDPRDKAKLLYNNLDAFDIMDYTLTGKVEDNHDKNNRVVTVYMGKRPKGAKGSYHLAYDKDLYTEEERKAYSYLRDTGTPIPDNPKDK

[5] = cytotoxicity in HPDE-C7 cells, cell-based, fluorescence, HTS (AID 430); assay type: functional; details: Homo sapiens
[6] = cytotoxicity in KRAS-transformed pancreatic duct cells, primary screen, cell-based, fluorescence, HTS (AID 431); assay type: functional; details: Homo sapiens;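 further: cell line used: HPDE-C7K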
[7] = growth suppression of PTEN-null colon cells, dose response, cell-based, HCT116 PTEN knockout (AID 1047); assay type: functional;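 further: HCT116 colon tumor cells with PTEN knocked out; cells exposed to compound for 60 hours before readout; potency for loss of cell viability measured by luminescence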
[8] = growth suppression of beta-catenin-knockout colon cells, dose response, cell-based, HCT116, human colon tumor (AID 1045); assay type: functional;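 further: HCT116 colon tumor cells with beta catenin knocked out; cells exposed to compound for 60 hours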
Streptococcus = assay: Group A Streptococcus viability loss, dose response, counter-screen for streptokinase expression inhibitor project, luminescence, BacTiterGlo (AID 1915); assay type: functional, organism-based;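 further: potency for reduction of bacterial viability or growth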
Caspase-3 = target: T3, Caspase-3 (Homo sapiens, UniProt P42574); assay type: functional;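 further: Dose-response selectivity test against caspase-3 for candidate inhibitors of sentrin-specific proteases (SENPs)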
T3 sequence (P42574 whole entry): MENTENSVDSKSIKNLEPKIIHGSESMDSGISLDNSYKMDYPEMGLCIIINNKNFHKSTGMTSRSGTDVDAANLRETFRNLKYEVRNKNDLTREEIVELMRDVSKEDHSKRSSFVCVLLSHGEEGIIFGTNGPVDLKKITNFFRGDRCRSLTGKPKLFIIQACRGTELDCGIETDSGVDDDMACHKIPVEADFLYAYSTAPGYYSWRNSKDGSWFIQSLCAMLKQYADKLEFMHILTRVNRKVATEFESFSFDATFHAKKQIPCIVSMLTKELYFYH

[9] = target: T4, Sentrin-specific protease 7 (Homo sapiens, UniProt Q9BQF6); assay type: functional;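 further: Luminescence-based dose-response confirmation of ultra-high-throughput screening hits, measuring inhibition of SENP7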
T4 sequence (Q9BQF6 whole entry): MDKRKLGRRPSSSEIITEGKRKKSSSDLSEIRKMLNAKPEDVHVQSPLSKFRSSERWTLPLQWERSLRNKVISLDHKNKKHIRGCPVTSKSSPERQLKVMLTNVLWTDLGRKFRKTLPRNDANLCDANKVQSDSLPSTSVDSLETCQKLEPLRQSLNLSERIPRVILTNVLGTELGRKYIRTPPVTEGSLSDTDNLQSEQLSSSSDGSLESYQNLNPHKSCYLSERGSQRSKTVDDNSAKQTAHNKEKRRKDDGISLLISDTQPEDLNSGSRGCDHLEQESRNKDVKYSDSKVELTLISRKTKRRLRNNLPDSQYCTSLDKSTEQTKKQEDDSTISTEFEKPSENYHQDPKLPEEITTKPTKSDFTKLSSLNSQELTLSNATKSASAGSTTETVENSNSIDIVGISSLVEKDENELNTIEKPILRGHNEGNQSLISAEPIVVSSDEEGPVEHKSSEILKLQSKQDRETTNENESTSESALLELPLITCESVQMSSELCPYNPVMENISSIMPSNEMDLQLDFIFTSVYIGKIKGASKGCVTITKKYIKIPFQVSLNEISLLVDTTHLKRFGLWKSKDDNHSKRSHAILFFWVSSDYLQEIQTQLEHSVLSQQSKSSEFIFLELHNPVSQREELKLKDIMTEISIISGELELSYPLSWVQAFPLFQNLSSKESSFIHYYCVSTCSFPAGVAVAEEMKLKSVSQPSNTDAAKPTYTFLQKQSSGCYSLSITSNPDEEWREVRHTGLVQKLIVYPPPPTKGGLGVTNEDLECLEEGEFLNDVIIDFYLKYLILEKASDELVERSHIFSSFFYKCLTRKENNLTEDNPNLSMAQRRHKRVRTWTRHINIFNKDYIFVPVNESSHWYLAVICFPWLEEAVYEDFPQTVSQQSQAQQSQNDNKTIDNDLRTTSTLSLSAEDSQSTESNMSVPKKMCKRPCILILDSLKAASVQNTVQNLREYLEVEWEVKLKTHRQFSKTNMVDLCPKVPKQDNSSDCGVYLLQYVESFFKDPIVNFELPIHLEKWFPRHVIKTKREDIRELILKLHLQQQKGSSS

[10] = target: T5, Sentrin-specific protease 6 (Homo sapiens, UniProt Q9GZR1); assay type: functional;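 further: Luminescence-based dose-response confirmatory assay of SENP6 inhibition, following up an ultra-high-throughput screen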
T5 sequence (Q9GZR1 whole entry): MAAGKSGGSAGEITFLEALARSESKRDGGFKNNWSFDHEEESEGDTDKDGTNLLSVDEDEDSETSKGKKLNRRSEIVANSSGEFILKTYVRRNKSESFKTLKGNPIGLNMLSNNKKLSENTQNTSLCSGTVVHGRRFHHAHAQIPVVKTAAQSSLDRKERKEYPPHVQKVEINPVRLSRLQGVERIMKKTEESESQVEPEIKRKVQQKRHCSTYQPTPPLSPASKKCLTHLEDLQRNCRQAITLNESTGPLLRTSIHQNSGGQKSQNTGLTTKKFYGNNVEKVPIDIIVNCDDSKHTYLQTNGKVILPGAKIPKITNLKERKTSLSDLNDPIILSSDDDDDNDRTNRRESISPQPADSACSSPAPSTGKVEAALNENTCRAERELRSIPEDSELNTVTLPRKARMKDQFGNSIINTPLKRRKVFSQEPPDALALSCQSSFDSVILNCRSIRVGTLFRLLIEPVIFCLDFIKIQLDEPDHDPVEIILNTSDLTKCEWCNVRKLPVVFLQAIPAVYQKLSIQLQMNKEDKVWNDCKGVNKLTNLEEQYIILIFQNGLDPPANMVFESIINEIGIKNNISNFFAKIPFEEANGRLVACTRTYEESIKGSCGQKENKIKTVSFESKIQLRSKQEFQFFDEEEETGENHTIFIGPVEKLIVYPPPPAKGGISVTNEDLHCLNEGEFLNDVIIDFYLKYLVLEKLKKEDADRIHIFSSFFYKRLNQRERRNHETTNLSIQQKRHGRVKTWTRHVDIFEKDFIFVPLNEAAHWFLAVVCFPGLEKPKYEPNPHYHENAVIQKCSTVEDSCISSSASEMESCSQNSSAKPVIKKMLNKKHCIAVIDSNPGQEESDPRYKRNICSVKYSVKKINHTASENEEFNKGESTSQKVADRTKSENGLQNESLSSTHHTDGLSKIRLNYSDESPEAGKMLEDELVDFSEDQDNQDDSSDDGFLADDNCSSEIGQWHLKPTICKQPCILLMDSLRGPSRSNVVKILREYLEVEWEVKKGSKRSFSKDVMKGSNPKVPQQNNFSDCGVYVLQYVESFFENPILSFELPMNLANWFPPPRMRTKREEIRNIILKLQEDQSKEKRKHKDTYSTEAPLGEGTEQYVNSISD

[11] = target: T6, Sentrin-specific protease 8 (Homo sapiens, UniProt Q96LD8); assay type: functional;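 further: luminescence read-out of SENP8 inhibition, dose-response confirmation following an ultra-high-throughput screen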
T6 sequence (Q96LD8 whole entry): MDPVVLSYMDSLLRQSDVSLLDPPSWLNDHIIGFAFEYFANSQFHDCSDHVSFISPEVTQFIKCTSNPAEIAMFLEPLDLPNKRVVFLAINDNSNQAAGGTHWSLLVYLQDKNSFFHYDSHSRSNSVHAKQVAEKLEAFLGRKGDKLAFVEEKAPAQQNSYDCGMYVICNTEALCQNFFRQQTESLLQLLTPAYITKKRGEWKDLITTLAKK

[12] = target: Heat shock protein HSP 90-alpha (Homo sapiens, UniProt P07900); assay type: functional, organism-based
Cytochrome P450 2C9 = Cytochrome P450 2C9 (Homo sapiens, UniProt P11712); details: Potency
Sequence of Cytochrome P450 2C9 (P11712 whole entry): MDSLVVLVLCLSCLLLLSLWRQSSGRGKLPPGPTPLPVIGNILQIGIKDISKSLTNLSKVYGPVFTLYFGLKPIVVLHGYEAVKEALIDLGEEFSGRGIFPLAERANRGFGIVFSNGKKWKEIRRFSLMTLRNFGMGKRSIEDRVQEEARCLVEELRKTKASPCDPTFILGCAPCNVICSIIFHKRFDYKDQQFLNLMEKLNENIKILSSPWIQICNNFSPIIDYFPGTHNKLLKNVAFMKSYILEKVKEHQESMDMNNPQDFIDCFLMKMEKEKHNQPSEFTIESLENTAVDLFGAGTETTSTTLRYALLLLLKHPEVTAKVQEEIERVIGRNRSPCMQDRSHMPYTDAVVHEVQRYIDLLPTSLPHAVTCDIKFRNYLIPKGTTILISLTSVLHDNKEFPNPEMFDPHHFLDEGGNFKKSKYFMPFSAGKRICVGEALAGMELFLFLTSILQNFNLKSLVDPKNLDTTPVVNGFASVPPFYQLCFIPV

[13] = target: Induced myeloid leukemia cell differentiation protein Mcl-1 (Homo sapiens, UniProt Q07820); assay type: functional
Sequence of Induced myeloid leukemia cell differentiation protein Mcl-1 (Q07820 whole entry): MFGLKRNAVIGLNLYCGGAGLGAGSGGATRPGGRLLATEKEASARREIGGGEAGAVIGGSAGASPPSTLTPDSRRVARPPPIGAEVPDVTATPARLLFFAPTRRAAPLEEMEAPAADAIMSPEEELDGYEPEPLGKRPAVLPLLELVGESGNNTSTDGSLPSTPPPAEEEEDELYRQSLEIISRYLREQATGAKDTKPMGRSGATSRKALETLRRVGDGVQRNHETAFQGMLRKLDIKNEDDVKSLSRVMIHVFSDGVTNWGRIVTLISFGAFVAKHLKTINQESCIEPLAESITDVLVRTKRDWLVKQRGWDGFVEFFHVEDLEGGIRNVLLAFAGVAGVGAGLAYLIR

cells = assay type: functional
HeLa = assay: HeLa cell cytotoxicity, dose response, cytotoxicity control for MITF activator project, CellTiter-Glo luminescence, cherry-pick samples (AID 540259); assay type: functional, cell-based; details: Homo sapiens

## CCN(CC)S(=O)(=O)c1cc(NC(=O)C2Cc3ccccc3C(=O)O2)ccc1C (stereo unspecified)
[1]
  EC50: > 50 µM (active)
[2]
  EC50: > 112 µM (not active)
[3]
  EC50: > 112 µM (not active)

## Cc1nn(C(C)(C)C)c(OC(=O)C2CCCC2)c1S(=O)(=O)c1ccccc1
Mucolipin-3
  EC50: > 9.99 µM (not active)
Ion channel NompC
  EC50: > 29.9 µM (not active)

## COc1ccc(O)c(-c2cc(-c3cccc(Br)c3)[nH]n2)c1
[4]
  EC50: 6.53 µM (active)
Streptokinase A
  EC50: > 150 µM (inconclusive)
[5]
  EC50: 8.85 µM (active)
[6]
  EC50: 4.73 µM (active)
[7]
  EC50: 25.4 µM (active)
[8]
  EC50: 16.6 µM (active)
Streptococcus
  EC50: 12.4 µM (active)
Caspase-3
  IC50: 97.7 µM (active)
[9]
  IC50: 11.3 µM (active)
[10]
  IC50: 26.5 µM (active)
[11]
  IC50: 29.1 µM (active)
[12]
  AC50: 8.06 µM (active)

## N#Cc1nc(-c2ccc(OCc3ccccc3)cc2)oc1NCCCN1CCOCC1
[5]
  EC50: 13 µM (active)
[6]
  EC50: 13.6 µM (active)

## O=C(C1Cc2ccccc2CN1S(=O)(=O)c1ccc(F)cc1)N1CCCCCC1 (stereo unspecified)
Mucolipin-3
  EC50: 3.72 µM (active)
Ion channel NompC
  EC50: > 29.9 µM (not active)

## CC(C)C[C@@H](CC(=O)N[C@H](CC(=O)N[C@@H]1CCCC[C@H]1C(=O)N[C@H](CC(=O)N[C@@H](CCC(=O)O)CC(=O)O)Cc1ccccc1)C(C)C)NC(=O)[C@@H]1CCCC[C@H]1N
Cytochrome P450 2C9
  AC50: 39.8 µM (inconclusive)

## COC(=O)c1ccc(Cl)cc1N(Cc1c(F)cccc1Cl)S(C)(=O)=O
Mucolipin-3
  EC50: 2.49 µM (active)
Ion channel NompC
  EC50: 6.15 µM (active)

## C=CCOc1ccc(Cl)cc1CNC1CCCC1
[1]
  EC50: > 50 µM (active)

## CCOC(=O)c1cc(-c2ccco2)nc2c1c(C)nn2-c1cccc(Cl)c1
[13]
  IC50: 2.51 µM (active)

## COc1ccc(-c2noc(CCC(=O)Nc3cccc(C)c3)n2)cc1
[1]
  EC50: > 50 µM (active)
cells
  IC50: 15.9 µM (active)

## [O-][n+]1onc2c1CCC(=N/O)/C2=N\Nc1ccccc1
[13]
  IC50: 4.87 µM (active)

## COc1cc(O)c2c(=O)cc(-c3ccccc3)oc2c1 [TECHTOCHRYSIN]
HeLa
  AC50: 46.2 µM (active)
Cytochrome P450 2C9
  AC50: 2.51 µM (inconclusive)
